The text below walks through data of patent US10800772B2 (Gilead Sciences, Inc., priority 2016, dated 2020).

In one data set the test system is HIV-IIIb IN T174I BT. As to the kind of experiment: Antiviral assay in MT4 cells, HIV-IIIb IN T174I BT virus (from viral breakthrough). To be noted: Human immunodeficiency virus 1, IIIB, MT4, 120 h, read-out: T174I BT EC50, MT4 cells, HIV-IIIb IN T174I BT (viral breakthrough), 5 days, CellTiter-Glo. Type of data set: cell-based, HIV-1. An outline of the steps:
(§1)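 MT4 cells were pre-infected for 3 h at 37 °C with HIV-IIIb (0.004 m.o.i.), then plated at 2000 cells per well with 3-fold serially diluted compound (10 concentrations, quadruplicate). After 5 days at 37 °C, CellTiter-Glo luminescence was read, and EC50 was taken as the concentration giving a 50% decrease in signal.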
Background: In ATP-based viability assays light output follows the ATP content of the culture.

A further data set can be described thus: in vitro. To be noted: human, microsomes.
The test system of another data set is HIV-IIIb IN T174I DE. Put plainly: Antiviral assay in MT4 cells, HIV-IIIb IN T174I DE virus (from dose escalation passaging). Type of data set: cell-based, HIV-1. The settings on record: Human immunodeficiency virus 1, IIIB, MT4, 120 h, read-out: T174I DE EC50, MT4 cells, HIV-IIIb IN T174I DE (dose escalation), 5 days, CellTiter-Glo. An outline of the steps: as §1

The next data set relates to HIV-IIIb (wildtype). Put plainly: Antiviral assay in MT4 cells, HIV-IIIb wildtype. Type of data set: cell-based, HIV-1. To be noted: read-out: WT EC50. An outline of the steps:
as §1

Data set [1] is described as follows: Hum MS stability (human microsomal stability half-life). To be noted: human microsomes.
The mark [2] stands for this setting: Human immunodeficiency virus 1, IIIB, MT4, 120 h.

Each structure is given as a SMILES string. Like-named read-outs stand apart in the source and are kept apart here.

Broadly, the EC50 is the concentration at which the effect is half-maximal. A word on the half-life: it is how long it takes for the measured level to halve. A lower half-life goes with rapid decline. For `Cc1cc2nc(-c3ccc4c(c3)c(C3CCN(C5CC5)CC3)nn4C)sc2c(-c2ccc(Cl)cc2)c1[C@H](OC(C)(C)C)C(=O)O` [Compound 128, (S)-2-(tert-butoxy)-2-(7-(4-chloro-phenyl)-2-(3-(1-cyclopropylpiperidin-4-yl)-1-methyl-1H-indazol-5-yl)-5-methylbenzo[d]thiazol-6-yl) acetic acid], the EC50 in the data set with HIV-IIIb IN T174I BT is 292 nM; in the data set with HIV-IIIb IN T174I DE, 511 nM; with HIV-IIIb (wildtype) (Human immunodeficiency virus 1, 120 h, MT4 cells, HIV-IIIb wildtype, 5 days, CellTiter-Glo), 4 nM. Besides, the half-life in the data set “in vitro” was 242 min.

For `Cc1cc2nc(-c3ccc4c(n3)c(C3CCN([C@H]5C[C@@H](O)C5)CC3)nn4C)sc2c(-c2ccc(Cl)cc2)c1[C@H](OC(C)(C)C)C(=O)O` [Compound 188, (S)-2-(tert-butoxy)-2-(7-(4-chloro-phenyl)-2-(3-(1-((1s,3s)-3-hydroxy-cyclobutyl)piperidin-4-yl)-1-methyl-1H-pyrazolo[4,3-b]pyridin-5-yl)-5-methylbenzo[d]thiazol-6-yl) acetic acid], the results for the EC50 with HIV-IIIb IN T174I BT, with HIV-IIIb IN T174I DE and in the data set on HIV-IIIb (wildtype) (setting [2]) were 196 nM, 391 nM and 11 nM, respectively. Also, the half-life in data set [1] amounted to 152 min.

With `Cc1cc2nc(-c3ccc4c(n3)c(N3CCN([C@H]5C[C@@H](O)C5)CC3)nn4C)sc2c(-c2ccc(Cl)cc2)c1[C@H](OC(C)(C)C)C(=O)O` [Compound 197, (S)-2-(tert-butoxy)-2-(7-(4-chloro-phenyl)-2-(3-(4-((1s,3s)-3-hydroxy-cyclobutyl)piperazin-1-yl)-1-methyl-1H-pyrazolo[4,3-b]pyridin-5-yl)-5-methylbenzo[d]thiazol-6-yl) acetic acid], the EC50 in the data set with HIV-IIIb IN T174I BT is 936 nM; in the data set with HIV-IIIb IN T174I DE, 2680 nM; with HIV-IIIb (wildtype) (setting [2]) it was 18 nM. Besides, the half-life in data set [1] was found to be 168 min.
